Data set [1] has as its system Homo sapiens. Put plainly: Immunosuppressive activity in po dosed human assessed as decrease in peripheral blood lymphocyte count measured after 24 hrs. Type of data set: functional.
For data set [2], the system named is Homo sapiens. As to the kind of experiment: Immunosuppressive activity in po dosed human assessed as decrease in peripheral blood lymphocyte count measured after 21 days of continuous treatment. Type of data set: functional. The following applies: 504 h.
For data set [3], the target named is T1, Sphingosine 1-phosphate receptor 1 (Homo sapiens, UniProt P21453). As to the kind of experiment: Modulation of S1P1 receptor internalization in HCtAEC assessed as S1P1 expression at 100 nM after 1 hr by FACS analysis relative to control.
T1 sequence (P21453 whole entry): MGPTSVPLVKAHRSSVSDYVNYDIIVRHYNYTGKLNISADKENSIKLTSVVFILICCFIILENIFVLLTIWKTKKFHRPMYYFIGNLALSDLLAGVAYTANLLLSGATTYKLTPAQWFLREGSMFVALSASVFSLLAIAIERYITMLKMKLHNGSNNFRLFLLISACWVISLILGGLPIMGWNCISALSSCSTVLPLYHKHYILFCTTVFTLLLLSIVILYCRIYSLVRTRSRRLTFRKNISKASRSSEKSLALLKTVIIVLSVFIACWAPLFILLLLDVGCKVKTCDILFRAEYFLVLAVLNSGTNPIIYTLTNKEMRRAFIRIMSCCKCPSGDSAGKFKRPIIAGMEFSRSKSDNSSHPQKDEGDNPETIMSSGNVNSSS
Data set [4] concerns the target T1, Sphingosine 1-phosphate receptor 1. Put plainly: Modulation of S1P1 receptor internalization in HCtAEC assessed as S1P1 expression at 1000 nM after 1 hr by FACS analysis relative to control.
Data set [5] is filed under the species Homo sapiens. Put plainly: Immunosuppressive activity in human assessed as decrease in peripheral blood lymphocytes at 1 mg measured over 2 days relative to control. In kind it is functional. Details: scale not given: the % may be the effect or the level left.
The subject of data set [6] is Homo sapiens. Put plainly: Immunosuppressive activity in human assessed as decrease in peripheral blood lymphocyte count at 0.1 mg/kg, po qd relative to control. Type of data set: functional. Further details: scale not given: the % may be the effect or the level left.
Data set [7] is described as follows: Half life in human. Type of data set: ADME.
For data set [8], the system named is Homo sapiens. Put plainly: Immunosuppressive activity in human assessed as decrease in peripheral blood lymphocyte count at 30 mg/kg, po bid relative to control. Type of data set: functional. Details: scale not given: the % may be the effect or the level left.
Data set [9] relates to Homo sapiens. Put plainly: Decrease in CD4+ T lymphocytes in human at 10 mg dosed daily for 28 days measured within 4 to 6 hrs post dose relative to control. Details: scale not given: the % may be the effect or the level left. Type of data set: functional.
Data set [10] concerns Homo sapiens. As to the kind of experiment: Decrease in naive T cells in human at 10 mg dosed daily for 28 days measured within 4 to 6 hrs post dose relative to control. Type of data set: functional. Further details: scale not given: the % may be the effect or the level left.
In data set [11] the test system is Homo sapiens. As to the kind of experiment: Decrease in B lymphocytes in human at 10 mg dosed daily for 28 days measured within 4 to 6 hrs post dose relative to control. In kind it is functional. Further details: scale not given: the % may be the effect or the level left.
Data set [12] in a line: Half life in human plasma. In kind it is ADME, cell-free.
The subject of data set [13] is Homo sapiens. Put plainly: In vivo modulatory activity at S1P1 receptor in SPMS patient assessed as reduction in newly enlarge T2 lesion at 1.25 to 2 mg, po administered as daily dose relative to control. Type of data set: functional. Details: scale not given: the % may be the effect or the level left.
In data set [14] the test system is IEC-6. Put plainly: Inhibition of apoptosis in rat IEC-6 cells assessed as decrease in CPT-induced DNA fragmentation relative to control. In kind it is functional.
The target in data set [15] is T1, Sphingosine 1-phosphate receptor 1. Put plainly: Activation of human recombinant S1P1 expressed in CHO cell membranes after 120 mins by GTP-gamma-35S-binding assay.
Data set [16] relates to IEC-6. As to the kind of experiment: Inhibition of apoptosis in rat IEC-6 cells assessed as decrease in CPT-induced DNA fragmentation. In kind it is functional, cell-based.
Data set [17] deals with Mus musculus. Put plainly: Immunosuppressive activity in C57BL6 mouse assessed as decrease in B220+ B lymphocyte count at 10 mg/kg, ip after 5 hrs by FACS analysis relative to control. Type of data set: functional. Details: scale not given: the % may be the effect or the level left. On the technique in general: A flow cytometer gives signals particle by particle.
The subject of data set [18] is Mus musculus. Put plainly: Immunosuppressive activity in ip dosed C57BL6 mouse assessed as decrease in B220+ B lymphocyte count after 5 hrs by FACS analysis. In kind it is functional.
Data set [19] deals with Mus musculus. As to the kind of experiment: Immunosuppressive activity in C57BL6 mouse assessed as decrease in CD4+ T lymphocyte count at 10 mg/kg, ip after 5 hrs by FACS analysis relative to control. Details: scale not given: the % may be the effect or the level left. Type of data set: functional.
Data set [20] deals with Mus musculus. As to the kind of experiment: Immunosuppressive activity in ip dosed C57BL6 mouse assessed as decrease in CD4+ T lymphocyte count after 5 hrs by FACS analysis. In kind it is functional.
In data set [21] the test system is Mus musculus. Put plainly: Immunosuppressive activity in C57BL6 mouse assessed as decrease in CD8+ T lymphocyte count at 10 mg/kg, ip after 5 hrs by FACS analysis relative to control. In kind it is functional. Details: scale not given: the % may be the effect or the level left.
For data set [22], the system named is Mus musculus. Put plainly: Immunosuppressive activity in ip dosed C57BL6 mouse assessed as decrease in CD8+ T lymphocyte count after 5 hrs by FACS analysis. Type of data set: functional.
For data set [23], the species on record is Homo sapiens. As to the kind of experiment: Selectivity for S1P1 (unknown origin) over S1P5 (unknown origin).
Data set [24] in a line: Half life in human at 0.5 mg, po administered as single dose measured on day 14 by LC-MS/MS analysis. In kind it is ADME, organism-based. The following applies: in vivo.
Data set [25] concerns Homo sapiens. As to the kind of experiment: Immunosuppressive activity in RRMS patient assessed as decrease in peripheral blood lymphocytes at 20 to 40 mg, po administered as daily dose measured after 8 days relative to control. Details: scale not given: the % may be the effect or the level left.

The structures appear in SMILES notation.

For orientation: ED50 means the midpoint of the dose-response relation. For the compound `C[C@H](Oc1ccc(-c2nc(-c3ccc4[nH]cnc4c3)no2)cc1C(F)(F)F)C(F)(F)F` [ASP-4058], the results for the ED50 with Homo sapiens [1] and in the data set with Homo sapiens [2] were 0.1 mg/kg and 0.023 mg/kg, respectively. For the same compound, the Activity in data set [3] worked out at 86%; in data set [4], 23%.

Broadly, the half-life is how long it takes for the measured level to halve. For `CCCCCCCCc1ccc(CCC(N)(CO)CO)cc1` [FINGOLIMOD], the Activity is given as 38% in the data set listed under Homo sapiens [5] and 80 - 86% in the data set with Homo sapiens [6]. For the same compound, the ED50 with Homo sapiens [1] was 0.041 mg/kg; in the data set with Homo sapiens [2] it was 0.02 mg/kg. This compound also showed a half-life in data set [7] of 168 h.

In data set [7], `CC(C)Oc1ccc(-c2nc(-c3cccc4c3CC[C@@H]4NCCO)no2)cc1C#N` [OZANIMOD] gave a half-life of 19 h.

As for `Cc1cc([C@@H](C)Nc2cccc(-c3cc(C)c(C(=O)N[C@@H](C)C(=O)O)c(C)c3)c2)ccc1Cl`, the Activity with Homo sapiens [8] is 75 - 85%.

As to `CCc1cc(/C(C)=N/OCc2ccc(C3CCCCC3)c(C(F)(F)F)c2)ccc1CN1CC(C(=O)O)C1` [SIPONIMOD], the Activity in the data set with Homo sapiens [9] is on record as 88%; with Homo sapiens [10], 88%; in the data set with Homo sapiens [11] it was 88%; with Homo sapiens [13], “<=80%”. In data set [12], the half-life lay in the range of 56.4 to 216 h.

For `CCCCCCCCc1ccc(CC[C@](N)(/C=C/P(=O)(O)O)CO)cc1`, in the data set with IEC-6 [14], the “inhibition (INH)” value worked out at 21%.

For orientation: EC50 means the concentration giving half of the maximal effect. `O=C(O)CCNCc1ccc2sc(-c3ccc(-c4ccccc4)c(C(F)(F)F)c3)cc2c1`: the EC50 in [15] amounted to 1.2 nM.

For `CCCCCCCCc1ccc(CC[C@@](N)(CO)CCP(=O)(O)O)cc1`, the “inhibition (INH)” value in the data set with IEC-6 [14] turned out to be 50%. The EC50 in the data set on IEC-6 [16] turned out to be 75 nM.

On to `CCOc1ccc(-c2nc(-c3cccc4c3CCC4NCCO)no2)cc1OCC` (centres undefined), for which the Activity in the data set with Mus musculus [17] is 63%; with Mus musculus [19] it was 83%; with Mus musculus [21], 84%. In addition, the results for the ED50 with Mus musculus [18], in the data set on Mus musculus [20] and in the data set with Mus musculus [22] were 1 mg/kg, 0.5 mg/kg and 2 mg/kg, respectively. This compound displayed a Selectivity Index in the data set listed under Homo sapiens [23] of 10000.

Compound `CCCc1ccc(COc2ccc3c(c2)CCC(CN2CC(C(=O)O)C2)=C3C)c(OC)c1` came in with a half-life in data set [24] of 81.9 to 89 h.

For the compound `CCC/N=C1/S/C(=C\c2ccc(OC[C@@H](O)CO)c(Cl)c2)C(=O)N1c1ccccc1C`, the Activity in the data set with Homo sapiens [25] is 62%.

For the origin of these results see ChEMBL document CHEMBL4325894, “An update on sphingosine-1-phosphate receptor 1 modulators” (Bioorg Med Chem Lett, 2018).
